Experimental data as given in patent publication US8785662B2, “Anilide-based compounds for preserving wood and method of use thereof” (SDS Biotech K.K., priority 2010, dated 2014).

Key:
[1] = tested on: Trametes versicolor; assay: Agar plate colony growth inhibition test on Trametes versicolor, single compounds and mixtures with triazoles (Colby); format: cell-based; details: single compound 0.2 ppm, potato dextrose agar, 25° C., seventh day
Method: Each of 1% w/v dimethylsulfoxide solution of compound A, compound B, cyproconazole (manufactured by Wako Pure Chemical Industries, Ltd.), epoxyconazole (manufactured by Wako Pure Chemical Industries, Ltd.) and tetraconazole (manufactured by Wako Pure Chemical Industries, Ltd.) was prepared. The solutions diluted with dimethylsulfoxide were fully mixed in the sterilized potate dextrose agar medium, and 15 ml of the resultant medium was poured into a petri dish 90 mm in diameter and allowed to stand at room temperature. As a control, the potate dextrose agar medium added with dimethylsulfoxide only was also prepared. After the medium was solidified, the mycelia was scooped with the medium from the colony of Trametes versicolor as being a typical wood-decaying fungi, which had been cultivated in advance, using a cork bailer 5 mm in diameter; and inoculated in the center of the test medium. The fungi was cultivated in the petri dish at 25° C., and the diameter of the colony spread from the source of inoculum was measured on the seventh day. The growth inhibition ratio by comparing the diameter of the test colony to that of the control was determined by the above-mentioned formula as an indication of the actual measured growth inhibition ratio. The theoretical efficacy ratio of the mixture of the active ingredients (i.e. theoretical growth inhibition ratio) was determined using the following Colby's formula (R. S. Colby, Weeds 15, 20-22 (1967)) to thereby be compared with the actual-measured efficacy ratio ([…]). […] Colby's formula: E=x+y−x·y/100 [Formula 2] E: theoretical efficacy ratio (theoretical growth inhibition ratio) represented by the ratio (%) to the control when the mixture of active compound B (concentration b) and C (concentration c) was used. x: efficacy ratio (growth inhibition ratio) represented by the ratio (%) to the control when active compound B was used at a concentration of b. y: efficacy ratio (growth inhibition ratio) represented by the ratio (%) to the control when active compound C was used at a concentration of c.

[2] = tested on: Fomitopsis palustris; assay: Agar plate colony growth inhibition test on Fomitopsis palustris; format: cell-based; details: 0.5 ppm in potato dextrose agar, 25° C., colony diameter on the seventh day vs control
Method: Each of 1% w/v dimethylsulfoxide solution of compound A, compound B and comparative compounds 1 to 13 was prepared. A predetermined amount of the solutions diluted with dimethylsulfoxide were fully mixed in the sterilized potato dextrose agar medium, and 15 ml of the resultant medium was poured into a petri dish 90 mm in diameter and allowed to stand at room temperature. As a control, the potato dextrose agar medium added with dimethylsulfoxide only was also prepared. […] The fungi was cultivated in the petri dish at 25° C., and the diameter of the colony spread from the source of inoculum was measured on the seventh day. The growth inhibition ratio between the diameter of the test colony and that of the control was determined by the following formula as an indication of the degree of inhibition. Compounds A and B apparently had greater effects on Fomitopsis palustris compared to the compounds which had been disclosed in the past. Growth inhibition ratio (%)={(diameter of the control colony−diameter of the test colony)/diameter of the control colony}×100 [Formula 1]

| SMILES | Actual measured growth inhibition ratio (%) [1] [%] | Degree of inhibition on Fomitopsis palustris at 0.5 ppm [2] |
| --- | --- | --- |
| Fc1ccc([C@]2(Cn3cncn3)O[C@H]2c2ccccc2Cl)cc1 (racemic) [Epoxiconazole, epoxyconazole] | 24 | – |
| Cc1cc(C(=O)Nc2cccc(C(C)C)c2)c(C(F)(F)F)o1 [Compound A, 3′-isopropyl-5-methyl-2-trifluoromethylfuran-3-carboxylic acid anilide] | 49 | ∘ (inhibition ratio of 75% or more) |
| Cc1cc(C(=O)Nc2cccc(OC(C)C)c2)c(C(F)(F)F)o1 [Compound B, 3′-isopropoxy-5-methyl-2-trifluoromethylfuran-3-carboxylic acid anilide] | 44 | ∘ (inhibition ratio of 75% or more) |
| FC(F)C(F)(F)OCC(Cn1cncn1)c1ccc(Cl)cc1Cl (centres unmarked) [Tetraconazole, tetraconazole] | 25 | – |
| Cc1cc(C(=O)Nc2cccc(C(C)C)c2)c(C)o1 [compound 1, 3′-isopropyl-2,5-dimethylfuran-3-carboxylic acid anilide] | – | ▴ (inhibition ratio of 25 to 50%) |
| CCc1cccc(NC(=O)c2cc(C)oc2C)c1 [compound 2, 3′-ethyl-2,5-dimethylfuran-3-carboxylic acid anilide] | – | ▴ (inhibition ratio of 25 to 50%) |
| Cc1cccc(NC(=O)c2cc(C)oc2C)c1 [compound 3, 3′-methyl-2,5-dimethylfuran-3-carboxylic acid anilide] | – | x (inhibition ratio of 25% or less) |
| CC(C)Oc1cccc(NC(=O)c2ccccc2C(F)(F)F)c1 [compound 4, 3′-isopropoxy-2-trifluoromethyl benzoic acid anilide] | – | ▴ (inhibition ratio of 25 to 50%) |
| Cc1ccccc1C(=O)Nc1cccc(OC(C)C)c1 [compound 5, 3′-isopropoxy-2-methylbenzoic acid anilide] | – | ▴ (inhibition ratio of 25 to 50%) |
| Cc1ccccc1C(=O)Nc1cccc(C(C)C)c1 [compound 6, 3′-isopropyl-2-methylbenzoic acid anilide] | – | ▴ (inhibition ratio of 25 to 50%) |
| CC(C)c1cccc(NC(=O)c2ccoc2)c1 [compound 7, 3′-isopropyl-3-furancarboxylic acid anilide] | – | x (inhibition ratio of 25% or less) |
| Cc1occc1C(=O)Nc1cccc(C(C)C)c1 [compound 8, 3′-isopropyl-2-methylfuran-3-carboxylic acid anilide] | – | ▴ (inhibition ratio of 25 to 50%) |
| Cc1ncsc1C(=O)Nc1cccc(C(C)C)c1 [compound 9, 3′-isopropyl-4-methylthiazole-5-carboxylic acid anilide] | – | x (inhibition ratio of 25% or less) |
| Cc1nc(C)c(C(=O)Nc2cccc(C(C)C)c2)s1 [compound 10, 3′-isopropyl-2,4-dimethyl-1,3-thiazole-5-carboxylic acid anilide] | – | Δ (inhibition ratio of 50 to 75%) |
| Cc1nc(C(F)(F)F)c(C(=O)Nc2cccc(C(C)C)c2)s1 [compound 11, 3′-isopropyl-2-methyl-4-trifluoromethyl-1,3-thiazole-5-carboxylic acid anilide] | – | ▴ (inhibition ratio of 25 to 50%) |
| Cc1cc(C(=O)Nc2cccc(C(C)C)c2)c(C)[nH]1 [compound 12, 3′-isopropyl-2,5-dimethylpyrrole-3-carboxylic acid anilide] | – | x (inhibition ratio of 25% or less) |
| CC(C)c1cccc(NC(=O)c2cn(C)nc2C(F)(F)F)c1 [compound 13, 3′-isopropyl-1-methyl-3-trifluoromethylpyrazole-4-carboxylic acid anilide] | – | ▴ (inhibition ratio of 25 to 50%) |
| CC(C1CC1)C(O)(Cn1cncn1)c1ccc(Cl)cc1 (centres unmarked) [cyproconazole] | 33 | – |
